Laboratory results: PMC12566703, “Design, Synthesis, In Vitro and In Silico Biological Evaluation of New Pyridine-2,5-Dicarboxylates Esters Bearing Natural Source Fragments as Anti-Trypanosomatid Agents” (Pharmaceutics, 2025)
Read-outs that look alike come from different tables or passages of the source.

Legend:
[1] = system: T. cruzi (A1) epimastigotes; assay: In vitro trypanocidal activity, Alamar Blue assay, 48 h; format: cell-based, Trypanosoma cruzi; conditions: for IC50: 48 h; for Selectivity Index T. cruzi A1: CC50 (J774.2)/IC50
Experimental: (§1) Both strains were maintained in liver infusion tryptose (LIT) medium supplemented with 10% FBS and 0.1% penicillin-streptomycin. They were preserved by transferring 1 × 10^6 parasites/mL into a new culture medium every week. […] The metabolic activity was determined by the Alamar Blue assay. Briefly, after the incubation period, 20 µL of 2.5 mM resazurin solution was added to each well and incubated for 3 h. Three independent experiments were performed in triplicate. The half-maximum inhibitory concentration (IC50) was determined using probit analysis.

[2] = system: L. mexicana (MHOM/MX/2017/UABJO17FCQEPS) (FCQEPS) promastigotes; assay: In vitro leishmanicidal activity, MTT method, 48 h; format: cell-based, Leishmania mexicana; conditions: for Selectivity Index L. mexicana FCQEPS: CC50 (J774.2)/IC50; for IC50: Leishmania mexicana, 48 h, read-out: L. mexicana IC50 (µM ± SD) FCQEPS; for IC50 / Leishmanicidal activity class in words, FCQEPS strain: promastigotes, FCQEPS strain; for Leishmanicidal activity class in words, FCQEPS strain: classes by IC50
Experimental: (§2) To determine the leishmanicidal activity of pyridine-2,5-dicarboxylates, the parasites, in their logarithmic growth phase (5 × 10^5 parasites/mL), were cultured in 96-well microliter plates with the corresponding pyridine-2,5-dicarboxylate compound at different concentrations (0.78–100 µM). Compounds were dissolved in DMSO in a final volume of 200 µL for 48 h at 26 °C. Parasites treated with DMSO (0.2%) were used as a negative control, while treatments with Glucantime and Amphotericin B, at the same concentrations, were used as positive controls. The metabolic activity of the cells was determined using the 3-(4,5-Dimethylthiazol-2-yl)-2,5-diphenyltetrazolium bromide (MTT) method. IC50 was determined using probit analysis. Three independent experiments were performed in triplicate, and the data were analyzed for statistical significance (p < 0.05) using Biostat 5.3.0 software.

[3] = system: L. mexicana (MNYC/BZ/62/M379) (M379) promastigotes; assay: In vitro leishmanicidal activity, MTT method, 48 h; format: cell-based, Leishmania mexicana; conditions: for Selectivity Index L. mexicana M379: CC50 (J774.2)/IC50; for IC50: Leishmania mexicana, 48 h, read-out: L. mexicana IC50 (µM ± SD) M379; for IC50 / Leishmanicidal activity class in words, M379 strain: promastigotes, M379 strain; for Leishmanicidal activity class in words, M379 strain: classes by IC50
Experimental: as §2

[4] = system: T. cruzi (NINOA) epimastigotes; assay: In vitro trypanocidal activity, Alamar Blue assay, 48 h; format: cell-based, Trypanosoma cruzi; conditions: for Selectivity Index T. cruzi NINOA: CC50 (J774.2)/IC50; for IC50: 48 h, read-out: T. cruzi IC50 (µM ± SD) NINOA
Experimental: as §1

[5] = Cytotoxicity assay, MTT method, 48 h; format: cell-based, murine; conditions: mouse, J774.2 macrophage cells, J774.2 cell line, read-out: Macrophage J774.2 CC50 (µM ± SD)
Experimental: A cytotoxicity assay was performed using the murine macrophage J774.2 cell line, which was recloned from the original ascites and solid tumor J774.1 (according to the manufacturer). The cells were cultured in RPMI medium supplemented with 10% SBF, 100 U […] penicillin, 100 µg/mL streptomycin, and glutamine (2 mM), and 5% CO2 atmosphere. The medium was changed every 2–3 days. Macrophages were used at 1 × 10^6 cells and were incubated with compounds at different concentrations (0.75–100 µM, respectively) at 37 °C for 48 h in a 5% CO2 atmosphere. DMSO was used as a negative control (0.2%). The metabolic activity of macrophages was determined by the MTT method. The percentage of cell viability was calculated, and the half-maximal cytotoxic concentration (CC50) was determined using probit analysis. Three independent assays were conducted in triplicate.

[6] = Trypanosoma cruzi, epimastigotes, NINOA strain
[7] = Trypanosoma cruzi, epimastigotes, A1 strain, read-out: T. cruzi IC50 (µM ± SD) A1
[8] = epimastigotes, A1 strain, read-out: T. cruzi IC50 (µM ± SD) A1

| SMILES | IC50 ([1]; Trypanosoma cruzi, read-out: T. cruzi IC50 (µM ± SD) A1, epimastigotes, A1 strain, 48 h) [µM] | IC50 ([1]; read-out: T. cruzi IC50 (µM ± SD) A1, epimastigotes, A1 strain) [µM] | Selectivity Index L. mexicana FCQEPS [2] | IC50 [2] [µM] | Leishmanicidal activity class in words, FCQEPS strain [2] | Selectivity Index L. mexicana M379 [3] | IC50 [3] [µM] | Leishmanicidal activity class in words, M379 strain [3] | Selectivity Index T. cruzi NINOA [4] | IC50 [4, 6] [µM] | IC50 ([4]; epimastigotes, NINOA strain) [µM] | Trypanocidal activity class in words, NINOA strain ([4]; epimastigotes, NINOA strain, classes by IC50) | Selectivity Index T. cruzi A1 [1] | CC50 at 48 h [5] [µM] | IC50 [1, 7] [µM] | IC50 [1, 8] [µM] | Trypanocidal activity class in words, A1 strain ([1]; epimastigotes, A1 strain, classes by IC50) |
| --- | --- | --- | --- | --- | --- | --- | --- | --- | --- | --- | --- | --- | --- | --- | --- | --- | --- |
| O=C(Cn1ccnc1[N+](=O)[O-])NCc1ccccc1 [Bzn, Benznidazole, reference compound] | < 39 | 39.08 ± 0.07 | – | – | – | – | – | – | – | – | – | – | – | – | – | – | – |
| CCOC(=O)c1cc(-c2ccccc2)c(C(=O)OCC)nc1C [Compound 3a, Diethyl 6-methyl-3-phenylpyridine-2,5-dicarboxylate] | – | – | >1 | > 200 | did not have leishmanicidal activity | >1 | > 200 | did not have antiparasitic activity | >3.6 | ≤ 56.7 | 54.5 ± 2.36 | moderate activity | >7.5 | > 200 | – | – | – |
| CCOC(=O)c1cc(-c2ccc(C)cc2)c(C(=O)OCC)nc1C [Compound 3b] | – | – | >1 | > 200 | – | >1 | > 200 | did not have antiparasitic activity | >3.3 | 59.3 | 59.4 ± 1.45 | – | >1.9 | > 200 | 106 ± 1.16 | – | – |
| CCOC(=O)c1cc(-c2ccc(F)cc2)c(C(=O)OCC)nc1C [Compound 3c] | – | – | >1.7 | 118 ± 2.08 | – | >1 | > 200 | inactive | >1.9 | 100 ± 1.86 | – | – | >2.2 | > 200 | 91.7 ± 1.72 | – | – |
| CCOC(=O)c1nc(C)c(C(=O)OCc2ccccc2)cc1-c1ccccc1 [Compound 4a, 5-Benzyl 2-ethyl 6-methyl-3-phenylpyridine-2,5-dicarboxylate] | – | – | >1 | > 200 | did not have leishmanicidal activity | >1 | > 200 | did not have antiparasitic activity | >4.7 | ≤ 56.7 | 42.4 ± 1.88 | – | >7.0 | > 200 | ≤ 56.7 | 28.5 ± 1.5 | – |
| CCOC(=O)c1nc(C)c(C(=O)OCc2ccccc2)cc1-c1ccc(C)cc1 [Compound 4b, 5-Benzyl 2-ethyl 6-methyl-3-(p-tolyl)pyridine-2,5-dicarboxylate] | – | – | >1 | > 200 | – | >1 | > 200 | did not have antiparasitic activity | >7.5 | – | – | – | >3.8 | > 200 | ≤ 56.7 | 52.6 ± 1.87 | – |
| CCOC(=O)c1nc(C)c(C(=O)OCc2ccccc2)cc1-c1ccc(F)cc1 [Compound 4c] | – | – | >1 | > 200 | – | >1 | > 200 | inactive | >1 | > 200 | – | – | >1 | > 200 | > 200 | – | – |
| CCOC(=O)c1nc(C)c(C(=O)OCc2ccc(C)cc2)cc1-c1ccccc1 [Compound 5a, 2-Ethyl 5-(4-methylbenzyl) 6-methyl-3-phenylpyridine-2,5-dicarboxylate] | – | – | >2.1 | 95 ± 1.36 | – | >1 | > 200 | did not have antiparasitic activity | >3.5 | ≤ 56.7 | 56.6 ± 1.26 | – | >9.3 | > 200 | – | – | – |
| CCOC(=O)c1nc(C)c(C(=O)OCc2ccc(C)cc2)cc1-c1ccc(C)cc1 [Compound 5b] | – | – | >1 | > 200 | – | >1 | > 200 | did not have antiparasitic activity | >1 | > 200 | – | – | >1 | > 200 | > 200 | – | completely lose their trypanocidal activity |
| CCOC(=O)c1nc(C)c(C(=O)OCc2ccc(C)cc2)cc1-c1ccc(F)cc1 [Compound 5c] | – | – | >1 | > 200 | abolished their leishmanicidal activity | >1 | > 200 | inactive | >1 | > 200 | – | – | >9.6 | > 200 | 20.8 ± 0.1 | – | – |
| CCOC(=O)c1nc(C)c(C(=O)OCc2ccc3c(c2)OCO3)cc1-c1ccccc1 [Compound 6a, 5-(Benzo[d][1,3]dioxol-5-ylmethyl) 2-ethyl 6-methyl-3-phenylpyridine-2,5-dicarboxylate] | – | – | >1 | > 200 | did not have leishmanicidal activity | >1 | > 200 | did not have antiparasitic activity | >7.3 | < 28 | 27.2 ± 0.84 | – | >1 | > 200 | > 200 | – | – |
| CCOC(=O)c1nc(C)c(C(=O)OCc2ccc3c(c2)OCO3)cc1-c1ccc(C)cc1 [Compound 6b] | – | – | >1 | > 200 | – | >1 | > 200 | did not have antiparasitic activity | >3.7 | 54 ± 2.29 | – | – | >4.0 | > 200 | 50.2 ± 2.31 | – | – |
| CCOC(=O)c1nc(C)c(C(=O)OCc2ccc3c(c2)OCO3)cc1-c1ccc(F)cc1 [Compound 6c] | – | – | >1 | > 200 | – | >1 | > 200 | inactive | >1 | > 200 | – | – | >7.9 | > 200 | 25.4 ± 0.6 | – | – |
| CCOC(=O)c1nc(C)c(C(=O)OC/C=C/c2ccccc2)cc1-c1ccccc1 [Compound 7a] | – | – | >1 | > 200 | did not have leishmanicidal activity | >1 | > 200 | did not have antiparasitic activity | >7.20 | 27.8 ± 1.66 | – | – | >1 | > 200 | > 200 | – | – |
| CC1CS(=O)(=O)CCN1/N=C/c1ccc([N+](=O)[O-])o1 (stereo not shown) [Nfx, Nifurtimox, reference compound] | – | – | – | – | – | – | – | – | – | 7.09 ± 0.12 | – | – | – | – | 19.3 ± 0.08 | – | – |
